Test [1] concerns ABCG1 mRNA. In words: ABCG1 mRNA levels normalized against β-actin mRNA, Taqman real-time RT-PCR, in mouse macrophages. It is filed as cell-based. As to conditions: 2 μM, data not shown. How it is done: (§1) Where indicated, RNA oligonucleotides targeting both sequences were mixed and used to down-regulate ABCG1 or ABCG4 gene expression. The scrambled control RNA oligonucleotides also were obtained from Dharmacon. An independent set of siRNA targeting ABCG1 (5′[…]3′) or ABCG4 (5′[…]3′) was obtained from Qiagen and used where indicated. For cholesterol efflux assays, mouse peritoneal macrophages were plated in 24- or 48-well plates and cultured in 10% fetal bovine serum and DMEM media at 37° C. for 24 hours. Cells were then transfected with siRNA and LipofectAMINE 2000 at the indicated concentration and labeled with isotopic cholesterol (2 μCi/ml [^3H]cholesterol in 1% fetal bovine serum) in the presence or absence of TO901317 (2 μM) for 48 hours. Cells were washed twice and equilibrated for 30 minutes for the third wash, and then HDL or other acceptors were added for the indicated period. Levels of ABCG1 and ABCG4 mRNAs normalized against β-actin mRNA were determined using Taqman real-time quantititative RT-PCR. The primers and probes were from Applied Biosystems.
Background: In qPCR the cycle at which signal appears reflects the starting amount.

The test system of test [2] is ABCG4 mRNA. In words: ABCG4 mRNA levels normalized against β-actin mRNA, Taqman real-time RT-PCR, in mouse macrophages. It is filed as cell-based. As to conditions: 2 μM, data not shown. How it is done: as §1

In the case of `O=S(=O)(c1ccccc1)N(CC(F)(F)F)c1ccc(C(O)(C(F)(F)F)C(F)(F)F)cc1` [T0901317], the “increase of mRNA levels of ABCG1” value in test [1] was determined as 3 fold. Further, the “increase of mRNA levels of ABCG4” value in test [2] amounted to 2 fold.

These data come from patent US20070094743A1, “ABCG1/ABCG4-related methods and compositions” (priority 2005, published 2007).
